In patent publication US7985889B2, “AtMIN7 mediated disease resistance to Pseudomonas syringae in Arabidopsis” (priority 2007, dated 2011):

Assays:
Assay in all cases: Brefeldin A treatment of bacteria-infiltrated detached Arabidopsis leaves: bacterial multiplication and disease symptoms
Type in all cases: in vivo
hrcC mutant = settings: Col-0 gl1 plants treated with water or BFA
Description: (§1) A standard enumeration procedure involves pathogen inoculation, using any one of described methods, supra, followed by assaying bacterial populations present within host tissues at regular intervals. The population present within the tissue was calculated based on the dilution factor divided by the amount of tissue present in each sample. Plotting log (culturable bacterial number/cm^2 leaf tissue) against time (usually in days) after pathogen inoculation produced an unfitted curve, i.e. growth curve. For a review of methods, see, Katagiri et al., in The Arabidopsis Book, Somerville, Meyerowitz, Eds. (American Society of Plant Biologists, Rockville, Md., 2002), website://dx.doi.org/10.1199/tab.0039; herein incorporated by reference.
(§2) Leaves were harvested and surface sterilized as follows: 1) whole leaves were removed from a host plant and gently mixed in a 70% ethanol solution for 1 minute. Leaves were blotted briefly on paper towels then rinsed in sterile distilled water for 1 minute, then blotted dry on paper towels. Leaf disks were excised from leaves with a 0.5 cm^2 or smaller cork borer, depending on the size of the sample leaves; 2) leaf disks from the leaves of 2 or more independent replicate plants were pooled for a single tissue sample and placed in a 1.5-mL microfuge tube with 100 μL sterile distilled water, the amount of leaf tissue per tube was recorded as leaf surface area. Three or more samples were harvested for each time point. Steps 1 and 2 were repeated for each sample; 3) Tissue samples were ground with a microfuge tube plastic pestle, by hand or by using a small hand-held electric drill. […] The number of serial dilutions necessary to get countable colonies were determined for each sample, however dilutions to 10^−7 were usually sufficient for any bacterial strain; 7) The samples were plated on the appropriate medium (e.g., Low salt Luria Bertani) supplemented with the necessary antibiotics to select for the specific inoculated bacterial strain. Plating was done in the traditional way (100 μL of a single sample was spread on a single plate) or several 10 μL aliquots of the 1:10 serial dilutions were spotted on to a single plate and allowed to dry onto the surface; and 8) Plates were placed at 30° C. for approximately 2 days with a cfu value determined for each dilution of each sample. […]
(§3) Leaves were infiltrated with 1×10^6 cfu/ml of bacteria, detached, and placed in microtiter wells with petioles immersed in the 36 μM BFA (Sigma Co.) solution. […] Bacterial populations and disease symptoms were determined on day 0 and day three.

Pst DC3000 ΔCEL mutant = test system: Pst DC3000 ΔCEL mutant
Description: as §1, §2, §3

Pst DC3000 = settings: Col-0 gl1 plants treated with water or BFA
Description: as §1, §2, §3

`C[C@H]1CCC/C=C/[C@@H]2C[C@H](O)C[C@H]2[C@H](O)/C=C/C(=O)O1` [BFA, Brefeldin A] was tested, and the “multiplication or disease symptoms caused by the hrcC mutant” value (hrcC mutant) was “no significant differences”, the “virulence (both multiplication and disease symptoms) of the Pst DC3000 ΔCEL mutant” value (Pst DC3000 ΔCEL mutant; 36 μM BFA, wild-type Col-0 gl1 leaves infiltrated with 1×10^6 cfu/ml, day three, vs water) was “significantly enhanced” and the “restoration of the virulence of the Pst DC3000 ΔCEL mutant, BFA-treated leaves compared with AtMIN7 KO plants” value (Pst DC3000 ΔCEL mutant; BFA-treated leaves) was “greater than that in the AtMIN7 KO plants”. The “multiplication or disease symptoms caused by Pst DC3000” value (Pst DC3000) was “no significant differences”.
